Assays:
[1] = target: T1, CYP2B6 (Homo sapiens, UniProt P20813); experiment: Microsomal CYP inhibition assay, CYP2B6; type: in vitro ADME; details: pooled human liver microsomes, probe bupropion
T1 construct: from tissue; host or cells: pooled human liver microsomes
T1 sequence (P20813 1-491): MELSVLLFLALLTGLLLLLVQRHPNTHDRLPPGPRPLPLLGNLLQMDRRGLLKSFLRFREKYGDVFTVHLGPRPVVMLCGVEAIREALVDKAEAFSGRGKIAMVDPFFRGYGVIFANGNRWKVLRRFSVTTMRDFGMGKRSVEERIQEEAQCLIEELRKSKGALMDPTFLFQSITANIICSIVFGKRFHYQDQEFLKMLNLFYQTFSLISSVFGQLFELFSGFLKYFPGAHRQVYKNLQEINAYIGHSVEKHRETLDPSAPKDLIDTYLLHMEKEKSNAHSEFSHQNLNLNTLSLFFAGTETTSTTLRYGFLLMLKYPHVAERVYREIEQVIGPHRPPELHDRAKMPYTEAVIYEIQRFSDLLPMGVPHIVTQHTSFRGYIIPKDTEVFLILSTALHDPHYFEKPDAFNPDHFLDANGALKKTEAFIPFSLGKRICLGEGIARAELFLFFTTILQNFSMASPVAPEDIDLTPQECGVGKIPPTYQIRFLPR
Experimental: (§1) To assess potential cardiotoxicity, we performed the human ether-go-go-related gene (hERG) inhibition assay. […] Briefly, EP was tested at six concentrations (cumulative concentration–response). […] For hepatotoxicity determination, we performed the microsomal CYP inhibition assay. Briefly, EP was incubated at seven increasing concentrations with pooled human liver microsomes. […] The supernatants were analyzed by LC-MS/MS.

[2] = tested on: Caco-2 cells; experiment: Caco-2 permeability assay; type: in vitro ADME; details: Caco-2
Experimental: It was performed in the 96-well Transwell system with a modified method.[36] Caco-2 cells were maintained at 37 °C in a humidified incubator with an atmosphere of 5% CO2. The cells were cultured in MEM containing 20% FBS in […], 100 units/mL penicillin, and 100 μg/mL of streptomycin. The Caco-2 cells were seeded onto inserts of a 96-well plate at a density of 0.5 × 10^5 cells/insert and cultured in the MEM containing 20% FBS for 7 days. Each cultured monolayer on the 96-well plate was washed twice with HBSS/HEPES (10 mM, pH 7.4). The permeability assay was initiated by the addition of each compound solution (10 μmol/L) into inserts (apical side, A) or receivers (basolateral side, B). The Caco-2 cell monolayers were incubated for 2 h at 37 °C. Fractions were collected from receivers (if apical to basal permeability) or inserts (if basal to apical permeability), and concentrations were assessed by UPLC/MS (Waters; Milford, MA). All compounds were tested in triplicates. The A → B (or B → A) apparent permeability coefficients ([…]) of each compound were calculated using the equation Pappa = dQ/dt × 1/AC0. The flux of a drug across the monolayer is dQ/dt (μmol/s). The initial drug concentration on the apical side is C0 (μmol/L). The surface area of the monolayer is A (cm^2).

[3] = target: T2, hERG (Homo sapiens, UniProt Q12809); experiment: hERG channel inhibition assay (QPatch HTX, HEK-293); type: cell-based; details: human, HEK-293 cells that express hERG
T2 construct: expressed in transfected cells; host or cells: HEK-293
Experimental: as §1

[4] = target: T3, hERG cardiac ion channel (Homo sapiens, UniProt Q12809); experiment: as above; type: cell-based; details: hERG tail-current; read-out: hERG pIC50 (converted)
T3 construct: expressed in transfected cells; host or cells: HEK-293
Experimental: as §1

[5] = target: T4, CYP2C9 (Homo sapiens, UniProt P11712); experiment: Microsomal CYP inhibition assay, CYP2C9; type: in vitro ADME
T4 construct: from tissue; host or cells: pooled human liver microsomes
Experimental: as §1

[6] = Plasma protein binding, rapid equilibrium dialysis (human); type: in vitro ADME; details: read-out: plasma binding (human) protein binding (converted)
Experimental: (§2) This assay determines the plasma protein binding of a drug or compound and free drug concentration in plasma using rapid equilibrium dialysis. We use the Single-Use RED (rapid equilibrium dialysis, Thermo Scientific) devices to allow the aqueous component of plasma containing the free drug/compound through a dialysis membrane (MWCO ∼ 8000). Sample quantification is determined using a Waters ACQUITY-SOQ UPLC-MS-ELDS-UV system.

[7] = Plasma stability assay (human)
[8] = Plasma protein binding, rapid equilibrium dialysis (mouse); type: in vitro ADME; details: read-out: plasma binding (mouse) protein binding (converted)
Experimental: as §2

[9] = tested on: MDA-MB-231-GFP mammary fat pad tumors; experiment: In vivo efficacy, MDA-MB-231-GFP mammary fat pad tumors; design: species or system mouse; details: 100 mg/kg BW i.p. 3 times per week
Experimental: Finally, to test the effect of EP on breast cancer progression in vivo, we established mammary fat pad tumors from GFP-tagged TNBC MDA-MB-231 cancer cells as we have previously described.[47] Mice were injected with TNBC cells diluted in Matrigel in their fourth mammary fat pad, and when tumors were palpable, the mice were injected via intraperitoneal (i.p.) 3 times per week with vehicle (10% ethanol) or 100 mg/kg BW of EP. […] The progression of the tumor was quantified by fluorescence image analysis obtained on a weekly basis.
Female (3-week-old) severe combined immunodeficient (SCID) Hairless Outbred (SHO) mice (Charles River Laboratories, Wilmington, MA) were segregated into two groups (n = 3 mice/group) and housed under specific pathogen-free conditions. The mice received an autoclaved AIN 76-A phytoestrogen-free diet (Tek Global, Harlan Teklad, Madison, WI) and water ad libitum. Cell inoculations were performed under isoflurane inhalation as we previously described[47] to produce orthotopic tumors as described in the provided reference.[54] […] GFP-tagged cells were monitored weekly for the duration of the study using an iBox Explorer^2 (UVP, CA) animal imaging system. […] Tumor fluorescence intensities were analyzed using ImageJ software (National Institutes of Health, Bethesda, MD). […]

[10] = Balb/c, mouse and human
Experimental: Briefly, pooled blood from 3 animals for experiment (male Balb/c 6–8w from the division of laboratory animal medicine in-house breeding colony) was collected, and the heparinized plasma was prepared. Plasma and test compounds were added to individual wells of a 96-well microtiter plate. Compounds were incubated at 37 °C for the provided time points. All tests were performed in triplicates. The test compound was incubated with plasma at six different time points. The reaction was terminated by methanol containing an internal standard. After centrifugation, the concentration of the test compound in the supernatant was quantified by LC-MS/MS.
Plasma stability assay: Briefly, pooled blood from 3 animals for experiment (male Balb/c 6-8w
from the division of laboratory animal medicine in-house breeding colony) was collected, and
the heparinized plasma was prepared. Plasma and test compounds were added to the individual
wells of a 96-well microtiter plate. Compounds were incubated at 37°C for the provided time
points. All tests were performed in triplicates. Then, the test compound was incubated with
plasma at six different time points. The reaction was terminated by the addition of methanol
containing an internal standard. After centrifugation, the concentration of the test compound in
the supernatant was quantified by LC-MS/MS. The percentage of test compound remaining at
compounds are known to be metabolized by plasma esterases,1 and were also incubated with
each batch of test compound.
A standard protocol and MS method was used for the plasma stability experiment. The extraction
procedure for plasma/tissue samples and the spiked plasma/tissue calibration standards were
identical: A 25 µL of study sample or spiked plasma/tissue calibration standard was added to
individual pre-labeled micro-centrifuge tubes followed by 100 µL of internal standard prepared
in Acetonitrile (Albendazole, 500 ng/mL) was added except for blank, where 100 µL of
Acetonitrile was added. Samples were vortexed for 5 minutes. Samples were centrifuged for 5
minutes at a speed of 4000 rpm at 4°C. Following centrifugation, 100 µL of clear supernatant
was transferred in 96 well plates and analyzed using LC-MS/MS mode. The LC system
comprises of a binary pump that can mix two mobile phases: A = Water+0.1% formic acid; B =
acetonitrile +0.1%formic acid. The system was operated in gradient mode using a 6 minute
min, 10-90% A to B in 5.5-6 min, and then hold at this gradient, using a Phenomenex Luna, 150
X 4.6 mm, 5 µm column. Source Parameter: positive, Ion Spray Voltage 5500, Temperature
550C, interface heater on.

T2 sequence (Q12809 whole entry): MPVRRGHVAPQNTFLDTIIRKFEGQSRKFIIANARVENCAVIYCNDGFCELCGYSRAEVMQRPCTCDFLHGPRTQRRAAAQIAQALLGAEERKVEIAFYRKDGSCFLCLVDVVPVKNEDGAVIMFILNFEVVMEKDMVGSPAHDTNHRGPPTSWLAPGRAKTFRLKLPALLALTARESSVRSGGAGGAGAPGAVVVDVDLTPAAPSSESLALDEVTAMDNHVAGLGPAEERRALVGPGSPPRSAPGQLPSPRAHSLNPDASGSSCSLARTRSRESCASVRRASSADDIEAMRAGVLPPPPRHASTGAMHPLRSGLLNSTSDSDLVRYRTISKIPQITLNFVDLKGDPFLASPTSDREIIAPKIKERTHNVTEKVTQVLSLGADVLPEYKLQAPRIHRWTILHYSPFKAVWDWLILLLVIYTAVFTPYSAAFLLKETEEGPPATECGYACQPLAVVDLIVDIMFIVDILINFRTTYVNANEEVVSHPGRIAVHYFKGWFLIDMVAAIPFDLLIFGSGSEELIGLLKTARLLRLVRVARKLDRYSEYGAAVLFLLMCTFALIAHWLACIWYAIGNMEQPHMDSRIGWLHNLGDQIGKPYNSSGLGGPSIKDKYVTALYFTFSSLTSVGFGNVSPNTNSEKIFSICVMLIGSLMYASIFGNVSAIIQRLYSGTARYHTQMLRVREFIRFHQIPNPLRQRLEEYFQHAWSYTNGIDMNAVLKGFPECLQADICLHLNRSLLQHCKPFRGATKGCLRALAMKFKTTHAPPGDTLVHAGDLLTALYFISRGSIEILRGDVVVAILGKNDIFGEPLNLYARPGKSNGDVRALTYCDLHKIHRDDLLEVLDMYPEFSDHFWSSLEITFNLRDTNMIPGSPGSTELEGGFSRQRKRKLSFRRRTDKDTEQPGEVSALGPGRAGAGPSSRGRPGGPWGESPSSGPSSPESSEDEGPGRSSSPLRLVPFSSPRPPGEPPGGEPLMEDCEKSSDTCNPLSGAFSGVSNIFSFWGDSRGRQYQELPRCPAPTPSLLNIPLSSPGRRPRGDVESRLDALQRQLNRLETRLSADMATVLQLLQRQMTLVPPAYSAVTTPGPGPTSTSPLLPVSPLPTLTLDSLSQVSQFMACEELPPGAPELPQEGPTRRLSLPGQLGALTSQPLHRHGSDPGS
T4 sequence (P11712 whole entry): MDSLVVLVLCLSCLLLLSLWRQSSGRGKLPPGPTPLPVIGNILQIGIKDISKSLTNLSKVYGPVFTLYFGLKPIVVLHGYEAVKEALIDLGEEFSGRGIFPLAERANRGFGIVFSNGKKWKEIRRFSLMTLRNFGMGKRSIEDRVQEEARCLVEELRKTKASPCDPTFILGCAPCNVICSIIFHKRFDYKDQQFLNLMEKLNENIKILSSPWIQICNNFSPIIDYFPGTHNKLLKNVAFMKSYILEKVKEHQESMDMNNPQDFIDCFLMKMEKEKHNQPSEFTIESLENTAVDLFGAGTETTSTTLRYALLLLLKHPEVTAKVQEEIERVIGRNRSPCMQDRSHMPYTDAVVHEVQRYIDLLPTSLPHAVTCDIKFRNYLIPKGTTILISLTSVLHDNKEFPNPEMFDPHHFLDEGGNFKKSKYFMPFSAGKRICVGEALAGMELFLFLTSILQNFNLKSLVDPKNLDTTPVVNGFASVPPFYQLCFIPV
T3 sequence (Q12809 whole entry): as the sequence (Q12809 whole entry) above

SMILES	IC50 [1] [µM]	efflux ratio (B2A/A2B) [2]	inhibition at 0.1 µM ([3]; 0.1 μM, first addition) [%]	inhibition at 0.3 µM ([3]; 0.3 μM, second addition) [%]	inhibition at 1 µM ([3]; 1 μM, 3rd addition) [%]	inhibition at 3 µM ([3]; 3 μM, fourth addition) [%]	inhibition at 10 µM ([3]; 10 μM, fifth addition) [%]	inhibition at 30 µM ([3]; 30 μM, sixth addition) [%]	IC50 [4] [µM]	IC50 [5] [µM]	fraction unbound [6]	half-life [7] [h]	fraction unbound [8]	tumor growth ([9]; by week 3, P < 0.05)	tumor size reduction ([9]; end of study, vs vehicle) [%]	plasma stability [10] [h]
CC(C)[C@@H](C)/C=C/[C@@H](C)[C@H]1CC[C@@H]2[C@]1(C)CC[C@H]1[C@]23C=C[C@]2(C[C@@H](O)CC[C@]12C)OO3 [Compound 2, Ergosterol peroxide]	> 25	0.93	1.99	2.99	3.04	6.21	10.1	18.7	> 30.2	> 25	0.28	> 48	0.14	decreases tumor growth	~17	
CC(C)[C@@H](C)/C=C/[C@@H](C)[C@H]1CC[C@@H]2[C@]1(C)CC[C@H]1[C@]23C=C[C@]2(CC(=O)CC[C@]12C)OO3 [Compound 3]																> 48

Source: PMC11375702, “Early Preclinical Studies of Ergosterol Peroxide and Biological Evaluation of Its Derivatives” (ACS Omega, 2024)
